Reference: patent US8394971B2, “Indole derivatives as selective androgen receptor modulators (SARMS)” (Janssen Pharmaceutica N.V., priority 2004, dated 2013)

What follows are compounds tested on testosterone-enhanced ventral prostate and seminal vesicle weights in castrated male Sprague Dawley rats (assay: Ventral Prostate and Seminal Vesicle Weight In Vivo Assay). Settings: immature castrated rats; once daily for five days, usually orally at 40 mg/kg, with testosterone propionate 2 mg/kg s.c.
Set-up: species or system rat
Description: Immature (approximately 50 g) castrated male Sprague Dawley rats (Charles River) were treated once daily for five days with test compound (usually given orally at 40 mg/kg in a volume of 0.3 mL, in 30% cyclodextrin or 0.5% methylcellulose vehicle) and with testosterone propionate (given subcutaneously by injection at the nape of the neck at 2 mg/kg, in a volume of 0.1 mL in sesame oil). On the sixth day, the rats were euthanized by asphyxiation in carbon dioxide. Ventral prostates and seminal vesicles were removed and their wet weights determined.
A test compound was said to be “active” if the non weight adjusted prostate weight was ≦40 mg or the % Inhibition prostate weight, body weight adjusted was ≧40% @2 mg/day dosage.

| SMILES | active / inactive (inhibition of testosterone-enhanced prostate weight) |
| --- | --- |
| CC(C)(O)c1[nH]c2cc(C(F)(F)F)c(Cl)cc2c1Br [compound 280] | inactive |
| Cc1c(C(C)(C)O)[nH]c2cc(C(F)(F)F)c(C#N)cc12 [compound 289] | active |
| CCSCC(C)(O)c1cc2cc(C#N)c(C(F)(F)F)cc2n1COC (racemic) [compound 322] | inactive |
| CC(C)(O)c1[nH]c2cc(C(F)(F)F)c(Cl)cc2c1I [compound 279] | inactive |
| CCSCC(C)(O)c1[nH]c2cc(C(F)(F)F)c(C#N)cc2c1I (racemic) [compound 324] | inactive |
| CC(C)(O)c1[nH]c2cc(C(F)(F)F)c([N+](=O)[O-])cc2c1Br [compound 277] | active |
| CC(C)(O)c1cc2cc(Cl)c(C(F)(F)F)cc2[nH]1 [compound 285] | inactive |
| CC(O)(CSCc1ccccn1)c1cc2cc([N+](=O)[O-])c(C(F)(F)F)cc2[nH]1 (racemic) [compound 204] | inactive |
| Cc1c(C(C)(C)O)[nH]c2cc(C(F)(F)F)c([N+](=O)[O-])cc12 [compound 290] | inactive |
| CC(O)(COc1cccc([N+](=O)[O-])c1)c1cc2cc(C#N)c(C(F)(F)F)cc2[nH]1 (stereo not drawn) [Compound #428, 2-[1-Hydroxy-1-methyl-2-(3-nitro-phenoxy)-ethyl]-6-trifluoromethyl-1H-indole-5-carbonitrile] | inactive |
| CCS(=O)(=O)CC(C)(O)c1cc2cc(C#N)c(C(F)(F)F)cc2[nH]1 (racemic) [compound 407] | inactive |
| CC(O)(c1[nH]c2cc(C(F)(F)F)c(C#N)cc2c1I)C(F)(F)F (racemic) [compound 330] | active |
| CC(O)(COc1ccc(C#N)c(C(F)(F)F)c1)c1cc2cc(C#N)c(C(F)(F)F)cc2[nH]1 (stereo not drawn) [Compound #429, 2-[2-(4-Cyano-3-trifluoromethyl-phenoxy)-1-hydroxy-1-methyl-ethyl]-6-trifluoromethyl-1H-indole-5-carbonitrile] | inactive |
| CC(C)(O)c1[nH]c2cc(C(F)(F)F)c(C#N)cc2c1I [compound 278] | active |
| CC(C)(O)c1cc2cc([N+](=O)[O-])c(C(F)(F)F)cc2n1S(C)(=O)=O [compound 273] | inactive |
| CCSCC(O)c1[nH]c2cc(C(F)(F)F)c(C#N)cc2c1Br (racemic) [compound 413] | inactive |
| CCS(=O)(=O)CC(C)(O)c1cc2cc([N+](=O)[O-])c(C(F)(F)F)cc2n1C (single isomer, unassigned) [compound 250] | active |
| CC(C)(O)c1[nH]c2cc(C(F)(F)F)c(C#N)cc2c1C#N [compound 295] | inactive |
| CCSCC(O)c1[nH]c2cc(C(F)(F)F)c(C#N)cc2c1I (racemic) [compound 411] | inactive |

| SMILES | active / inactive (inhibition of testosterone-enhanced prostate weight) |
| --- | --- |
| CCSCC(C)(O)c1cc2cc(C)c(C(F)(F)F)cc2[nH]1 (racemic) [compound 414] | inactive |
| CCSCC(C)(O)c1cc2cc(C#N)c(C)cc2[nH]1 (racemic) [compound 446] | inactive |
| CCSCC(C)(O)c1cc2nc(C#N)ccc2[nH]1 (racemic) [compound 6] | inactive |
| CCSCC(C)(O)c1cc2cc(Cl)ccc2[nH]1 (racemic) [compound 353] | inactive |
| CC(O)(C[S+]([O-])CC(F)(F)F)c1cc2cc([N+](=O)[O-])c(C(F)(F)F)cc2[nH]1 (mixture of isomers) [compound 205] | active |
| CC(O)(c1cc2cc(C#N)c(C(F)(F)F)cc2n1CC#N)C(F)(F)F (racemic) [compound 331] | active |
| CC(O)(c1[nH]c2cc(C(F)(F)F)c(C#N)cc2c1C#C[Si](C)(C)C)C(F)(F)F (single isomer, unassigned) [compound 347] | active |
| CC(C)(O)c1[nH]c2cc(C(F)(F)F)c([N+](=O)[O-])cc2c1I [compound 276] | active |
| CCSCC(C)(O)Cc1cc2cc([N+](=O)[O-])c(C(F)(F)F)cc2[nH]1 (stereo not drawn) [compound 10] | inactive |
| CCSCC(O)(CC)c1cc2cc(Cl)c(C(F)(F)F)cc2[nH]1 (racemic) [compound 181] | active |
| CCSCC(C)(CO)c1cc2cc([N+](=O)[O-])c(C(F)(F)F)cc2[nH]1 (stereo not drawn) [compound 11] | inactive |
| C=Cc1c(C(C)(C)O)[nH]c2cc(C(F)(F)F)c([N+](=O)[O-])cc12 [compound 281] | inactive |
| CCSCC(C)(O)c1c(C)c2cc(C#N)c(C(F)(F)F)cc2n1C (single isomer, unassigned) [compound 317] | inactive |
| CC(C)(O)c1[nH]c2cc(C(F)(F)F)c(Cl)cc2c1Cl [compound 282] | inactive |
| CCS(=O)(=O)CC(C)(O)c1cc2cc([N+](=O)[O-])c(C(F)(F)F)cc2[nH]1 (stereo not drawn) [compound 175] | active |
| CCS(=O)(=O)CC(O)c1cc2cc(C#N)c(C(F)(F)F)cc2[nH]1 (racemic) [compound 412] | inactive |
| CC(C)(O)c1cc2cc(Cl)c(Cl)cc2[nH]1 [compound 405] | inactive |
| CC(C)(O)c1[nH]c2cc(C(F)(F)F)c(C#N)cc2c1Cl [compound 287] | inactive |
| CC(C)(O)c1[nH]c2cc(C(F)(F)F)c([N+](=O)[O-])cc2c1C#N [compound 291] | active |

| SMILES | active / inactive (inhibition of testosterone-enhanced prostate weight) |
| --- | --- |
| CCSCC(C)(OC)c1cc2cc([N+](=O)[O-])c(C(F)(F)F)cc2[nH]1 (stereo not drawn) [compound 167] | active |
| CCSCC(C)(O)c1cc2cc(C#N)c(C(F)(F)F)cc2n1CC#N (racemic) [compound 323] | inactive |
| CCSCC(C)(O)c1[nH]c2cc(C(F)(F)F)c([N+](=O)[O-])cc2c1I (single isomer, unassigned) [compound 244] | active |
| CCSCC(C)(O)c1cc2cc(C#N)c(Cl)cc2[nH]1 (racemic) [compound 224] | active |
| CSCC(C)(O)c1cc2cc(Cl)c(C(F)(F)F)cc2n1S(C)(=O)=O (stereo not drawn) [compound 134] | inactive |
| CCSCC(C)(O)c1cc2cc(Cl)c(C(F)(F)F)cc2n1S(C)(=O)=O (racemic) [compound 146] | inactive |
| CC(O)(COc1ccc(C#N)cc1)c1cc2cc(C#N)c(C(F)(F)F)cc2[nH]1 (stereo not drawn) [Compound #426, 2-[2-(4-Cyano-phenoxy)-1-hydroxy-1-methyl-ethyl]-6-trifluoromethyl-1H-indole-5-carbonitrile] | inactive |
| C#Cc1c(C(C)(O)CSCC)[nH]c2cc(C(F)(F)F)c(C#N)cc12 (racemic) [compound 326] | inactive |
| CC(O)(c1[nH]c2cc(C(F)(F)F)c(C#N)cc2c1Cl)C(F)(F)F (single isomer, unassigned) [compound 345] | active |
| CC(C)(O)c1cc2cc(Cl)c(C(F)(F)F)cc2n1S(C)(=O)=O [compound 284] | active |
| CC[S+]([O-])CC(C)(O)c1[nH]c2cc(C(F)(F)F)c(C#N)cc2c1C (mixture of isomers) [compound 319] | active |
| CC(C)(O)c1cc2cc(Br)ccc2[nH]1 [compound 294] | inactive |
| CSCn1c(C(C)(O)C(F)(F)F)cc2cc(C#N)c(C(F)(F)F)cc21 (racemic) [compound 333] | active |
| CCSCC(C)(O)c1c(C)c2cc(C#N)c(C(F)(F)F)cc2n1C (single isomer, unassigned) [compound 318] | inactive |
| CSCC(O)c1cc2cc(C#N)c(C(F)(F)F)cc2[nH]1 (racemic) [compound 408] | inactive |
| CC(O)(CS(=O)(=O)c1ccc(F)cc1)c1cc2cc(Cl)c(C(F)(F)F)cc2[nH]1 (stereo not drawn) [compound 85] | inactive |
| N#Cc1cc2cc(C(O)(C(F)(F)F)C(F)(F)F)[nH]c2cc1C(F)(F)F [compound 357] | active |
| CCSCC(C)(O)c1[nH]c2cc(C(F)(F)F)c(C#N)cc2c1CC (racemic) [compound 344] | active |
| CCc1c(C(C)(O)CS(=O)(=O)CC)[nH]c2cc(C(F)(F)F)c(C#N)cc12 (single isomer, unassigned) [compound 354] | active |
